Measured values: PMC10853020 (Journal of medicinal chemistry, 2023)
pKi: −log10 of the molar value.

Key:
σ2 receptor = target: T1, σ2 receptor (Rattus norvegicus, UniProt Q5U3Y7); experiment: NIMH PDSP radioligand binding displacement
T1 sequence (Q5U3Y7 1-176): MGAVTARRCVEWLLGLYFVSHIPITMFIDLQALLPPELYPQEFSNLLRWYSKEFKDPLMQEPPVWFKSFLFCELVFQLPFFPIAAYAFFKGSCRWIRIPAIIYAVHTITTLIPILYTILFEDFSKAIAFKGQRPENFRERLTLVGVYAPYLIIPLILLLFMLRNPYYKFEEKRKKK

male Sprague–Dawley rats = experiment: Novelty-induced; type: in vivo, rat; settings: 30 mg/kg ip, 30 min prior; vs vehicle; p < 0.0001
h5-HT2CR = target: T2, h5-HT2CR (Homo sapiens, UniProt P28335); experiment: 5-HT-induced Cai^2+ release in h5-HT2CR-CHO cells; type: cell-based; settings: 1 nM
T2 sequence (P28335 33-458): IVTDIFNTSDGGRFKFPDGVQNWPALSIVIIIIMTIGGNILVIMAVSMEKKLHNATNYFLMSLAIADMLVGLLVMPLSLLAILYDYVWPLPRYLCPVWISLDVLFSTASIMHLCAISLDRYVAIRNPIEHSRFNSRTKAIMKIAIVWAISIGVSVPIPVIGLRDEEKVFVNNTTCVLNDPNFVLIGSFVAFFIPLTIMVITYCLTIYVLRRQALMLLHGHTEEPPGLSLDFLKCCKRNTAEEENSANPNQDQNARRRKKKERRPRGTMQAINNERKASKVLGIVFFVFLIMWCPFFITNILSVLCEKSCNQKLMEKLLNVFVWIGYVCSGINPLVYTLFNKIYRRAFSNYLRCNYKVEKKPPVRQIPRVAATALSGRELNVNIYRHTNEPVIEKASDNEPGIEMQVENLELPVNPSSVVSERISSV

HERG = HERG (Homo sapiens, UniProt Q12809); experiment: NIMH PDSP radioligand binding displacement
HERG, sequence (Q12809 whole entry): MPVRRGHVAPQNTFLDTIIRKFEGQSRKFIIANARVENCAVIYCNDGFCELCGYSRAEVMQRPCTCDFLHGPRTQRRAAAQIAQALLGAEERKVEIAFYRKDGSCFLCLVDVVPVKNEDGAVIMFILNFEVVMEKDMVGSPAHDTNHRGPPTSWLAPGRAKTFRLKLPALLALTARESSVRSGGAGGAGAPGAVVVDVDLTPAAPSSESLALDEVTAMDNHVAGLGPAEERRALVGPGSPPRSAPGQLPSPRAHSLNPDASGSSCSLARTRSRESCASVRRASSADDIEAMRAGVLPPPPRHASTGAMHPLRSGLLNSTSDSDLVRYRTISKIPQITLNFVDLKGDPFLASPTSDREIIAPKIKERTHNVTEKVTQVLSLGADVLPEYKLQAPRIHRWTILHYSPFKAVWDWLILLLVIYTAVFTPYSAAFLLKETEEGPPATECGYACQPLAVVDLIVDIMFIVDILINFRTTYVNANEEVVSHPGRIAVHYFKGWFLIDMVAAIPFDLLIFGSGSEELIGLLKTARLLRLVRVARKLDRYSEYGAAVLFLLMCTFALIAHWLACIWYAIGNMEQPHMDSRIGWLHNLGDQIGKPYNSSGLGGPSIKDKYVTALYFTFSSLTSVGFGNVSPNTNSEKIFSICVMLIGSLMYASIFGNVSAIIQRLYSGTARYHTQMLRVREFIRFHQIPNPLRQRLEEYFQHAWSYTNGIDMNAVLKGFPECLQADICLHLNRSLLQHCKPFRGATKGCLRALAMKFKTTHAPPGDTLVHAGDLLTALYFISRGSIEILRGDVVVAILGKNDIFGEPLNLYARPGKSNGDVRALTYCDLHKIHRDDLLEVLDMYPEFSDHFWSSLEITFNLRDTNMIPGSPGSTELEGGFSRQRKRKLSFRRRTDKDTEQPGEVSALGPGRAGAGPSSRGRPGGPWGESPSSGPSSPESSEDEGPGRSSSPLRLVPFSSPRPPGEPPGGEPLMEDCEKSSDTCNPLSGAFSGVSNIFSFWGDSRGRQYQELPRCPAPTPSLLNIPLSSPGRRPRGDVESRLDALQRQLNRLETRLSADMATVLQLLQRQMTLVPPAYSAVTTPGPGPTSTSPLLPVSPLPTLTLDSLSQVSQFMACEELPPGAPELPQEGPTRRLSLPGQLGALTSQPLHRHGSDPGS

Compound	5-HT2CR PAM activity (h5-HT2CR)	other results
CCCCCCCC/C=C\CCCCCCCC(=O)NC(CO)(CO)CO [Compound 13, N-(1,3-Dihydroxy-2-(hydroxymethyl)propan-2-yl)oleamide]	–	pKi (σ2 receptor): 5.44; total ambulations over a 90 min session (male Sprague–Dawley rats): significantly reduced total ambulations vs vehicle
CCCCCCCC/C=C\CCCCCCCC(=O)NC[C@H](O)CO [Compound 10, (S)-N-(2,3-Dihydroxypropyl)oleamide]	inactive	–
CCCCCCCC/C=C\CCCCCCCC(=O)NC(CO)CO [Compound 11, N-(1,3-Dihydroxypropan-2-yl)oleamide]	–	displacement of binding to the hERG potassium channel (HERG): did not displace binding

Continued, in another order:

5-HT2CR PAM activity (h5-HT2CR)	Compound	other results
potentiated 5-HT-evoked Cai^2+ release	CCCCCCCC/C=C\CCCCCCCC(=O)NCCCO [Compound 8, N-(3-Hydroxypropyl)oleamide]	–
did not evoke PAM activity	CCCCCCCC/C=C\CCCCCCCC(=O)NCC(OCC)OCC [Compound 14, N-(2,2-Diethoxyethyl)oleamide]	–
